According to US10745400B2, “Inhibition of BMP signaling, compounds, compositions and uses thereof” (Vanderbilt University, priority 2018, dated 2020):
Where a chain is given by its changes, count along the chain named.

Tests used:
ALK2 (R206H) = biological target: T1, ALK2 (R206H) (Homo sapiens, UniProt Q04771, R206H); test: Kinase assay (33P-ATP filter-binding), ALK2 R206H; format: biochemical; details: R206H mutant, 20 mM; read-out: Kinase Selectivity ALK2 (R206H, 20 mM)
T1 sequence (Q04771 21-509 R206H): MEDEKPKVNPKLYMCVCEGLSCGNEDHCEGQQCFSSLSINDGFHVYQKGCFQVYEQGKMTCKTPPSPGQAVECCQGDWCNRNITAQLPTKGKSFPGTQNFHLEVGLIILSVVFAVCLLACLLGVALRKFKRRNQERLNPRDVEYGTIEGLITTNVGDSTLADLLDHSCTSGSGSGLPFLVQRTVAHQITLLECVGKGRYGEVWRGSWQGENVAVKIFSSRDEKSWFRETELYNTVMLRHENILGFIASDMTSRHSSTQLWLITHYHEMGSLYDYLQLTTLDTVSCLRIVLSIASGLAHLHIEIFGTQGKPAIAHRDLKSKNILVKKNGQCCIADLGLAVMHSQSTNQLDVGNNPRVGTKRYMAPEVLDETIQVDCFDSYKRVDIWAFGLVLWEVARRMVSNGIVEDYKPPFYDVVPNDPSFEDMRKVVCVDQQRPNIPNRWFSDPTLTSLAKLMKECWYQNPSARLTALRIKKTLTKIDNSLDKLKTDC
Experimental: (§1) The kinase assays were carried out briefly as follows. Substrate was prepared in Base Reaction Buffer (20 mM Hepes (pH 7.5), 10 mM MgCl2, 1 mM EGTA, 0.02% Brij35, 0.02 mg/ml BSA, 0.1 mM Na3VO4, 2 mM DTT, 1% DMSO). The indicated kinases was delivered into the substrate solution and allowed to gently mix. Next, the specific compound was delivered in DMSO into the kinase mixture by Acoustic technology (Echo550; nanoliter range), and allowed to incubate for 20 minutes at room temperature. Next, ^33P-ATP was delivered into the reaction mixture to initiate the reaction and allowed to incubate at room temperature. After 2 hours, the reactions were spotted onto P81 ion exchange paper and the kinase activity is detected by the filter-binding method.

ALK3/BMPR1A = ALK3/BMPR1A (Homo sapiens, UniProt P36894); test: Kinase assay (33P-ATP filter-binding), ALK3; format: biochemical; details: 1 mM; read-out: Kinase Selectivity ALK3/BMPR1A (1 mM)
In short: (§2)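 Kinase mixed into substrate in Hepes (pH 7.5)/MgCl2/EGTA/DTT buffer, 1% DMSO. Cpd acoustically dispensed, 20 min RT preinc. Start w/ 33P-ATP, 2 h RT, P81 spot, filter-binding.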

ALK2 (Q207D) = biological target: T2, ALK2 (Q207D) (Homo sapiens, UniProt Q04771, Q207D); test: Kinase assay (33P-ATP filter-binding), ALK2 Q207D; format: biochemical; details: Q207D mutant, 20 mM; read-out: Kinase Selectivity ALK2 (Q207D, 20 mM)
T2 sequence (Q04771 21-509 Q207D): T1 sequence (Q04771 21-509 R206H) with H186R, Q187D
Experimental: as §1

caALK1 = caALK1 (Homo sapiens, UniProt P37023); test: Subtype analysis, constitutively active caALK1; format: cell-based; details: Primary In Vitro Data, constitutively active ALK1
ALK2/ACVR1 = biological target: T3, ALK2/ACVR1 (Homo sapiens, UniProt Q04771); test: Kinase assay (33P-ATP filter-binding), ALK2; format: biochemical; details: 20 mM; read-out: Kinase Selectivity ALK2/ACVR1 (20 mM)
T3 sequence (Q04771 21-509): T1 sequence (Q04771 21-509 R206H) with H186R
Experimental: as §1

[1] = test system: BMP-responsive C2C12 mouse myoblast cells stimulated with BMP4; test: BMP4 cell assay (Id1 promoter-firefly luciferase reporter); format: cell-based; details: Mus musculus; C2C12 cells, BMP4 50 ng/mL, overnight
Experimental: The BMP4 cell assay were carried out briefly as follows. Stably transfected BMP-responsive C2C12 mouse myoblast cells (containing the Idl promoter-firefly luciferase reporter) were seeded in 96-well plates and incubated overnight with the compounds and BMP4 (50 ng/mL). The cells were then lysed, and cell extracts were then subjected to the firefly luciferase assay using Steady-Glo luciferase assay kit (Promega). The results were normalized to cell titers, as measured using Cell Titer-Glo luminescence assay (Promega). […] Relative activity was quantified by the ratio of firefly to Renilla luciferase activities using the dual luciferase assay kit (Promega).

ALK1/ACVRL1 = ALK1/ACVRL1 (Homo sapiens, UniProt P37023); test: Kinase assay (33P-ATP filter-binding), ALK1; format: biochemical; details: read-out: Kinase Selectivity ALK1/ACVRL1
In short: as §2

caALK2 = biological target: T4, caALK2 (Homo sapiens, UniProt Q04771, Q207D); test: Subtype analysis, C2C12BRA cells transfected with constitutively active caALK2; format: cell-based; details: Primary In Vitro Data, constitutively active ALK2
T4 construct: expressed in transfected cells; host or cells: C2C12BRA cells (mouse myoblast, BMP-responsive reporter)
T4 sequence (Q04771 21-509 Q207D): T1 sequence (Q04771 21-509 R206H) with H186R, Q187D
Experimental: The BMP4 cell assay were carried out briefly as follows. Stably transfected BMP-responsive C2C12 mouse myoblast cells (containing the Idl promoter-firefly luciferase reporter) were seeded in 96-well plates and incubated overnight with the compounds and BMP4 (50 ng/mL). The cells were then lysed, and cell extracts were then subjected to the firefly luciferase assay using Steady-Glo luciferase assay kit (Promega). The results were normalized to cell titers, as measured using Cell Titer-Glo luminescence assay (Promega). For subtype analysis, C2C12BRA cells were transiently transfected with plasmids (0.1 μg) expressing constitutively active forms of the BMP type I receptors (caALK2, caALK3 or caALK6) using Lipofectamine kit (Invitrogen) in 96 well plates; 0.1 μg of pRL-TK Renilla luciferase (Promega) was used to control for transfection efficiency. Relative activity was quantified by the ratio of firefly to Renilla luciferase activities using the dual luciferase assay kit (Promega).

Chain of ALK3/BMPR1A (P36894 24-532): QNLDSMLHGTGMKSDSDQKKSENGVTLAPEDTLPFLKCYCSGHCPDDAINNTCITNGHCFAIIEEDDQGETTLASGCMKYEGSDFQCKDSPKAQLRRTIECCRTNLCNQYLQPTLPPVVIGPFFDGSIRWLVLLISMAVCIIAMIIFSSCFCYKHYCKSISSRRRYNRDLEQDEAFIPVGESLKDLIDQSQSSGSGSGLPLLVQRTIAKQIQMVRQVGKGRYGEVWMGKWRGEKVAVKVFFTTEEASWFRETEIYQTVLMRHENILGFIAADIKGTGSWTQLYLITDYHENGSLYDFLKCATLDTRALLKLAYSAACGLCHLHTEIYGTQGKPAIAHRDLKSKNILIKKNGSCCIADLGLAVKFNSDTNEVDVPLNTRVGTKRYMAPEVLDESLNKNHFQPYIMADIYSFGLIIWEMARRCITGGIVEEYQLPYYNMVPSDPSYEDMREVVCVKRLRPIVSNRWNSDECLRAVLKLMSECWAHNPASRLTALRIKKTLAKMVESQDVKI
Chain of caALK1 (P37023 whole entry Q201D, form open): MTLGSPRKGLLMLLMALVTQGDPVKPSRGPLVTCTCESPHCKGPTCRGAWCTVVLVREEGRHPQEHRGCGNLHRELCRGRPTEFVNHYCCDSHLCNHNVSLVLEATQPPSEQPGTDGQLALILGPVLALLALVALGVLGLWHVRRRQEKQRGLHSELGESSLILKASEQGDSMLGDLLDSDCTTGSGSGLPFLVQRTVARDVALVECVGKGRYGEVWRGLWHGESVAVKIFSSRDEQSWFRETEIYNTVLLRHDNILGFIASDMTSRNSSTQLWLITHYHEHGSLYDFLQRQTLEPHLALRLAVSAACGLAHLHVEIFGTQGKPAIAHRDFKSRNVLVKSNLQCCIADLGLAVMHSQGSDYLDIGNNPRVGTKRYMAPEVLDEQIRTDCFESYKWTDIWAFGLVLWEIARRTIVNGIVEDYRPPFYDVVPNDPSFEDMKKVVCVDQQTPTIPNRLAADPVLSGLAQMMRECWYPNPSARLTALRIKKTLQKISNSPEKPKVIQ
Chain of ALK1/ACVRL1 (P37023 22-503): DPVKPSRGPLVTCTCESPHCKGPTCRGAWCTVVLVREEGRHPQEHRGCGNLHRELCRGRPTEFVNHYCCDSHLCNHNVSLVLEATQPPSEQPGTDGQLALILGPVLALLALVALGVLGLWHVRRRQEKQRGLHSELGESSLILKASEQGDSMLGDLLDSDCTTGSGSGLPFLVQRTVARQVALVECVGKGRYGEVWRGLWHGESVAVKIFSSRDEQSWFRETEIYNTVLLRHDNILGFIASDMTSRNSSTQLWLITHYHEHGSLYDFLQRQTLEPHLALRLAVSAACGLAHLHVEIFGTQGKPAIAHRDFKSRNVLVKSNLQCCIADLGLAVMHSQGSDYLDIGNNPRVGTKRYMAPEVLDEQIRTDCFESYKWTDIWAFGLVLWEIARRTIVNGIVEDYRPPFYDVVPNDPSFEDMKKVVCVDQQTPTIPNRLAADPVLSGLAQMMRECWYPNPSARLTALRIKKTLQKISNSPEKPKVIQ

Row | Structure (SMILES) | IC50 (ALK2 (R206H)) [nM] | IC50 (ALK3/BMPR1A) [nM] | IC50 (ALK2 (Q207D)) [nM] | IC50 (caALK1) [nM] | IC50 (ALK2/ACVR1) [nM] | IC50 [1] [nM] | IC50 (ALK1/ACVRL1) [nM] | IC50 (caALK2) [nM]
1 | CN1CCN(c2ccc(-c3ccn4c(-c5ccnc6ncccc56)cnc4c3)cc2)CC1 [Compound 29] | 88.2 | 17.4 | 77.6 | 178 | 84.9 | 112 | 767 | 16
2 | Cc1cc(-c2cnc3cc(-c4ccc(N5CCN(C)CC5)cc4)ccn23)c2cccnc2n1 [Compound 28] | 105 | < 5.08 | 79.1 | 189 | 114 | 66 | 1200 | 44
